From patent US10987317B2, “Inhibition of glutaminase C” (Cornell University, priority 2009, dated 2021)

How the values were obtained:
[1] = system: NIH 3T3 cells expressing H-Ras(G12V); assay: H-Ras(G12V)-induced transformation (focus formation, growth in low serum); type: cell-based; conditions: focus formation in NIH 3T3 cells or growth in low serum
From the text: FIGS. 5A-C illustrate comparative abilities of 968 and other benzo[a]phenanthrldinones to inhibit the transforming activity of oncogenic Dbl and H-Ras. […] Histograms show the relative levels of Dbl-induced focus formation for the different treatments, compared to Dbl-induced focus formation measured in the presence of DMSO (i.e. solvent control). Data represent the average of 3 experiments (mean±s.d.). […] Histograms show the relative levels of Ras(G12V)-induced focus formation measured for the different treatments, compared to Ras(G12V)-induced focus formation measured in the presence of DMSO (solvent control). Data represent the average of 3 experiments (mean±s.d.). FIG. 5C NIH 3T3 cells stably expressing H-Ras(G12V) that are cultured in DMEM supplemented with 1% calf serum, with the indicated amounts of 968. After 6 days, cells are trypsinized and counted. 100% represents the number of cells counted in the absence of 968, i.e. 26×10^4 cells. Data represent the average of 3 experiments (mean±s.d.).

HMECs = assay: Growth of normal mammary epithelial cells; type: cell-based, human; conditions: 10 μM, 6 days
[2] = molecular target: T1, E. coli-expressed mouse ortholog of human GAC (Mus musculus, UniProt D3Z7P3); assay: Recombinant glutaminase activity assay; type: biochemical
T1 construct: A plasmid encoding mouse GAC (residues 128-603) was cloned into the pET28a vector; His-tag (N, cleaved yes); made in house; host or cells: E. coli (pET28a)
T1 sequence (D3Z7P3 128-603 isoform D3Z7P3-2): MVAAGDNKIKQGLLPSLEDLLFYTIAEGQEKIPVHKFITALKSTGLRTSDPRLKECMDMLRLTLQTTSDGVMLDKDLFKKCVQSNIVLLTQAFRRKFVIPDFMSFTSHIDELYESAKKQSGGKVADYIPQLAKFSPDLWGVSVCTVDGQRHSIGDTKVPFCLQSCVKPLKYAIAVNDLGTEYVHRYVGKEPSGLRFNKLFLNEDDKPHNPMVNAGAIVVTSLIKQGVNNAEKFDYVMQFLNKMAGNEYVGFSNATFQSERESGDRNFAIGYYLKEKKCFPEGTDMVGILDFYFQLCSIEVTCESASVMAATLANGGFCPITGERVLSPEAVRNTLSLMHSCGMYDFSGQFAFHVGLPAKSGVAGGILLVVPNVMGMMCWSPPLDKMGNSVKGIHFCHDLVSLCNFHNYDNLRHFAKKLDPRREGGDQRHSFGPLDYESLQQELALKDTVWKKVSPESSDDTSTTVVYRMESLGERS
Experimental: 100%=620 moles of glutamine hydrolyzed per minute per mole of enzyme. Data represent the average of 3 experiments (±s.d.). […] Following precipitation of the beads and re-suspension, the samples are analyzed by Western blotting with anti-V5 antibody. […] Data represent the average of 3 experiments (±s.d.). […] Data represent the average of 3 experiments (±s.d.). […] Data represent the average of 3 experiments (±s.d.). FIG. 3E NIH 3T3 cells transiently expressing Dbl are assayed for focus formation in the presence of 10 μM 968 alone or together with […] dimethyl α-ketoglutarate. […] 100%=680 nM glutamine hydrolyzed per minute per 10^5 cells. Data are the average of 3 experiments (=s.d.). […] 100%=750 nM glutamine hydrolyzed per minute per 10^5 cells. Data represent the average of 3 experiments (±s.d.).
The activity of the E. coli-expressed recombinant mouse ortholog of human GAC are assayed in the presence of 0 (●), 10 (∇) or 20 (▪) μM 968 and inorganic phosphate in the form of dipotassium hydrogen phosphate. […] The data are plotted as GA activity as function of varying concentrations of glutamine or inorganic phosphate. The data are the average of 3 experiments and are plotted as mean±SEM.
Glutaminase activity assays were performed on recombinant enzyme as previously described (Kenny et al., “Bacterial Expression, Purification and Characterization of Rat Kidney-Type Mitochondrial Glutaminasc,” Protein Expr. Purif 31:140-148 (2003), which is hereby incorporated by reference in its entirety). A plasmid encoding mouse GAC (residues 128-603) was cloned into the pET28a vector and the protein was expressed with an N-terminal histidine (His)-tag. The tag was cleaved using thrombin and the protein was further purified by anion-exchange and gel-filtration chromatography. […] The reaction mixture was incubated at room temperature for 45 minutes and the absorbance at 340 nm was recorded for each sample against a water blank. The absorbance of the sample with just the cocktail mixture was subtracted from each reading to calculate the activity of the enzyme.

Structure (SMILES): CN(C)c1ccc(C2Nc3ccc4ccccc4c3C3=C2C(=O)CC(C)(C)C3)cc1Br (stereo not shown) [Compound 968, 5-[3-bromo-4-(dimethylamino)phenyl]-2,2-dimethyl-2,3,5,6-tetrahydrobenzo[a]]
- potency on Dbl-induced transformation compared to oncogenic H-Ras [1]: more potent inhibitor of Dbl-induced transformation
- growth of HMECs (HMECs): little effect
- inhibition of enzymatic activity of purified GAC [2]: inhibits
- mode of inhibition versus glutamine and inorganic phosphate ([2]; 0, 10 or 20 μM): neither competitive versus substrate (glutamine) nor inorganic phosphate
